This is an account of results in patent publication US8816088B2 (Theravance, Inc., priority 2009, dated 2014).

The assay concerns MCh-induced bronchoconstriction. The assay can be described thus: Einthoven assay: bronchoprotection against methacholine (MCh)-induced bronchoconstriction. It is filed as in vivo. The note with it: for inhibition in vivo at 0.1 mg: inhaled or nasal. The procedure: This assay measures the ability of a test compound to provide bronchoprotection against methacholine (MCh)-induced bronchoconstriction in a rat. Male Sprague-Dawley rats (Harlan, Indianapolis, Ind.), weighing between 200 g and 350 g, were used for all studies. Test compound or vehicle (sterile deionized water) were dosed by inhalation (1H) over a 10 min period in a pie shaped inhalation chamber (R+S Molds, San Carlos, Calif.) using 5 mL of dosing solution. […] Rats were dosed with 100 μg of test compound unless otherwise indicated. At predetermined time points, rats were anesthetized with an intraperitoneal (IP) injection of 120 mg/kg inactin (thiobutabarbital). A supplemental dose (40 mg/kg, IP) was administered if the animal responded to physical stimuli (e.g. toe pinch). The surgical site was shaved and a 1-2 cm midline incision of the ventral aspect of the neck was made. The jugular vein was isolated and cannulated with a saline-filled polyethylene catheter (PE-50) to allow IV infusion of MCh. Trachea was dissected free and cannulated with a 14G needle (#NE-014, Small Parts, Miami Lakes, Fla.). After placement of the tracheal cannula, each rat was ventilated using a respirator (Model 683, Harvard Apparatus, Inc., MA) set at a stroke volume of 1 mL/100 g body weight (but not exceeding 2.5 mL volume) and a rate of 90 strokes per minute. A T-connector was placed along the respirator expiratory tubing to allow for measurement of changes in ventilation pressure (VP) using a Biopac transducer that was connected to a Biopac […]) pre-amplifier. Body temperature was maintained at 37° C. using a heating pad. Changes in VP were recorded using the Acknowledge Data Collection Software (Santa Barbara, Calif.). Baseline values were collected for at least 2.5 min. Rats were then challenged with non-cumulative intravenous (IV) infusions of 40 and 80 μg/kg MCh. MCh was infused intravenously for 2.5 minutes from a syringe pump (sp210iw, World Precision Instruments, Inc., Sarasota, Fla.) at a rate of 2 mL/kg/min, with a 2 minute interval between the two doses of MCh. Changes in ventilation pressure (cm H2O) in treated animals are expressed as % inhibition of MCh response relative to control animals. Other bronchoconstrictors, such as histamine and acetylcholine, can be used in place of MCh in this assay. Additionally, guinea pigs can be used instead of rats. […] Inhibition greater than or equal to 30 percent at 24 h is indicative of a long duration of action.

Where [1] appears, read: Rattus norvegicus, 24 h, read-out: Broncho. at 24 h, Bronchoprotective effect present at 24 h, 100 μg by inhalation, 24 h after administration.
Setting [2] is: rat, 100 μg by inhalation, 24 h after administration.

Where a name gives a salt, the structure may show the parent alone. Read-outs that look alike come from different tables or passages of the source.

Consider `C[C@@H](Cc1cccc(CCNC(=O)c2ccc(N(C)C(=O)CCN3CCC(OC(=O)Nc4ccccc4-c4ccccc4)CC3)cc2)c1)NC[C@H](O)c1ccc(O)c2[nH]c(=O)ccc12` [Compound I-56, Biphenyl-2-ylcarbamic acid 1-[2-({4-[2-(3-{(S)-2-[(R)-2-hydroxy-2-(8-hydroxy-2-oxo-1,2-dihydroquinolin-5-yl)-ethylamino]propyl}phenyl)ethylcarbamoyl]phenyl}-methylcarbamoyl)ethyl]piperidin-4-yl ester ditrifluoroacetic acid salt], for which the inhibition in vivo at 0.1 mg under setting [1] is < 30%.

As to `Cc1ccc(C(=O)NCc2cccc(CC(C)NC[C@H](O)c3ccc(O)c4[nH]c(=O)ccc34)c2)cc1N(C)C(=O)CCN1CCC(OC(=O)Nc2ccccc2-c2ccccc2)CC1` (stereo partly drawn) [Compound I-45, Biphenyl-2-ylcarbamic acid 1-(2-{[5-(3-{2-[(R)-2-hydroxy-2-(8-hydroxy-2-oxo-1,2-dihydroquinolin-5-yl)-ethylamino]propyl}benzylcarbamoyl)-2-methylphenyl]-methylcarbamoyl}ethyl)piperidin-4-yl ester ditrifluoroacetic acid salt], under setting [1], the inhibition in vivo at 0.1 mg was < 30%. On the same count and under the same terms, the same measure for `CC(Cc1cccc(CC(=O)Nc2cccc(N(C)C(=O)CCN3CCC(OC(=O)Nc4ccccc4-c4ccccc4)CC3)c2)c1)NC[C@H](O)c1ccc(O)c2[nH]c(=O)ccc12` (stereo partly shown) [Compound I-52, ditrifluoroacetic acid salt]: < 30%. Take `Cc1ccc(C(=O)Nc2ccc(CCNC[C@H](O)c3ccc(O)c4[nH]c(=O)ccc34)cc2)cc1N(C)C(=O)CCN1CCC(OC(=O)Nc2ccccc2-c2ccccc2)CC1` [Compound I-35]: the “Broncho. at 24 h; Bronchoprotective effect present at 24 h” value under setting [2] is reported as “Yes (Bronchoprotective effect present at 24 h, e.g., ≧30% inhibition of the MCh response at 24 h in the rat Einthoven assay (100 μg))”. `Cc1cc(NC(=O)c2cccc(N(C)C(=O)CCN3CCC(OC(=O)Nc4ccccc4-c4ccccc4)CC3)c2)c(C)cc1CNC[C@H](O)c1ccc(O)c2[nH]c(=O)ccc12` [Compound I-30, ditrifluoroacetic acid salt]: the inhibition in vivo at 0.1 mg under setting [1] is < 30%. On the same count and under the same terms, the value for `CC(Cc1ccc(CC(=O)NCc2ccc(N(C)C(=O)CCN3CCC(OC(=O)Nc4ccccc4-c4ccccc4)CC3)cc2)cc1)NC[C@H](O)c1ccc(O)c2[nH]c(=O)ccc12` (stereo partly drawn) [Compound I-80, Biphenyl-2-ylcarbamic acid 1-{2-[(4-{[2-(4-{2-[(R)-2-hydroxy-2-(8-hydroxy-2-oxo-1,2-dihydroquinolin-5-yl)-ethylamino]propyl}phenyl)acetylamino]methyl}-phenyl)methylcarbamoyl]ethyl}piperidin-4-yl ester ditrifluoroacetic acid salt] was < 30%.

For `C[C@@H](Cc1cccc(CC(=O)NCc2ccc(N(C)C(=O)CCN3CCC(OC(=O)Nc4ccccc4-c4ccccc4)CC3)cc2)c1)NC[C@H](O)c1ccc(O)c2[nH]c(=O)ccc12` [Compound I-79, ditrifluoroacetic acid salt], the inhibition in vivo at 0.1 mg under setting [1] is < 30%. Consider `Cc1cc(CNC[C@H](O)c2ccc(O)c3[nH]c(=O)ccc23)ccc1NC(=O)CCCN(C)C(=O)CCN1CCC(OC(=O)Nc2ccccc2-c2ccccc2)CC1` [Compound I-2, Biphenyl-2-ylcarbamic acid 1-(2-{[3-(4-{[(R)-2-hydroxy-2-(8-hydroxy-2-oxo-1,2-dihydroquinolin-5-yl)ethylamino]methyl}-2-methylphenylcarbamoyl)-propyl]methylcarbamoyl}ethyl)piperidin-4-yl ester ditrifluoroacetic acid salt], for which the inhibition in vivo at 0.1 mg under setting [1] is < 30%. Regarding `Cc1cc(CNC[C@H](O)c2ccc(O)c3[nH]c(=O)ccc23)ccc1NC(=O)c1ccc(C)c(N(C)C(=O)CCN2CCC(OC(=O)Nc3ccccc3-c3ccccc3)CC2)c1` [Compound I-28, ditrifluoroacetic acid salt], under setting [1], the inhibition in vivo at 0.1 mg was < 30%.

On to `Cc1cc(CNC[C@H](O)c2ccc(O)c3[nH]c(=O)ccc23)ccc1NC(=O)c1cccc(N(C)C(=O)CCN2CCC(OC(=O)Nc3ccccc3-c3ccccc3)CC2)c1` [Compound I-27, Biphenyl-2-ylcarbamic acid 1-(2-{[3-(4-{[(R)-2-hydroxy-2-(8-hydroxy-2-oxo-1,2-dihydroquinolin-5-yl)-ethylamino]methyl}-2-methylphenylcarbamoyl)phenyl]-methylcarbamoyl}ethyl)piperidin-4-yl ester ditrifluoroacetic acid salt], for which, under setting [1], the inhibition in vivo at 0.1 mg is < 30%. Regarding `CC(Cc1cccc(CCNC(=O)Cc2ccc(N(C)C(=O)CCN3CCC(OC(=O)Nc4ccccc4-c4ccccc4)CC3)cc2)c1)NC[C@H](O)c1ccc(O)c2[nH]c(=O)ccc12` (stereo partly shown) [Compound I-87], the “Broncho. at 24 h; Bronchoprotective effect present at 24 h” value under setting [2] was “Yes (Bronchoprotective effect present at 24 h, e.g., ≧30% inhibition of the MCh response at 24 h in the rat Einthoven assay (100 μg))”. For `Cc1ccc(C(=O)Nc2ccc(CC(C)NC[C@H](O)c3ccc(O)c4[nH]c(=O)ccc34)cc2)cc1N(C)C(=O)CCN1CCC(OC(=O)Nc2ccccc2-c2ccccc2)CC1` (stereo partly drawn) [Compound I-41, Biphenyl-2-ylcarbamic acid 1-(2-{[5-(4-{2-[(R)-2-hydroxy-2-(8-hydroxy-2-oxo-1,2-dihydroquinolin-5-yl)-ethylamino]propyl}phenylcarbamoyl)-2-methylphenyl]-methylcarbamoyl}ethyl)piperidin-4-yl ester], the inhibition in vivo at 0.1 mg (rat, 100 μg by inhalation, 24 h after administration, read-out: Broncho. at 24 h, Bronchoprotective effect present at 24 h) was < 30%.

In the case of `CC(Cc1cccc(CNC(=O)c2cccc(N(C)C(=O)CCN3CCC(OC(=O)Nc4ccccc4-c4ccccc4)CC3)c2)c1)NC[C@H](O)c1ccc(O)c2[nH]c(=O)ccc12` (stereo partly shown) [Compound I-44, ditrifluoroacetic acid salt], the inhibition in vivo at 0.1 mg under setting [1] was < 30%. As for `Cc1ccc(C(=O)Nc2cccc(CCNC[C@H](O)c3ccc(O)c4[nH]c(=O)ccc34)c2)cc1N(C)C(=O)CCN1CCC(OC(=O)Nc2ccccc2-c2ccccc2)CC1` [Compound I-33, Biphenyl-2-ylcarbamic acid 1-(2-{[5-(3-{2-[(R)-2-hydroxy-2-(8-hydroxy-2-oxo-1,2-dihydroquinolin-5-yl)-ethylamino]ethyl}phenylcarbamoyl)-2-methylphenyl]-methylcarbamoyl}ethyl)piperidin-4-yl ester ditrifluoroacetic acid salt], the inhibition in vivo at 0.1 mg under setting [1] is < 30%. On the same count and under the same terms, the value for `COc1cc(CNC[C@H](O)c2ccc(O)c3[nH]c(=O)ccc23)ccc1NC(=O)c1cccc(N(C)C(=O)CCN2CCC(OC(=O)Nc3ccccc3-c3ccccc3)CC2)c1` [Compound I-29, ditrifluoroacetic acid salt] was < 30%; that for `CC(Cc1ccc(CC(=O)Nc2cccc(N(C)C(=O)CCN3CCC(OC(=O)Nc4ccccc4-c4ccccc4)CC3)c2)cc1)NC[C@H](O)c1ccc(O)c2[nH]c(=O)ccc12` (stereo partly drawn) [Compound I-53, Biphenyl-2-ylcarbamic acid 1-[2-({3-[2-(4-{2-[(R)-2-hydroxy-2-(8-hydroxy-2-oxo-1,2-dihydroquinolin-5-yl)-ethylamino]propyl}phenyl)acetylamino]phenyl}methyl-carbamoyl)ethyl]piperidin-4-yl ester ditrifluoroacetic acid salt] was < 30%; that for `CN(C(=O)CCN1CCC(OC(=O)Nc2ccccc2-c2ccccc2)CC1)c1cccc(C(=O)Nc2ccc(CCNC[C@H](O)c3ccc(O)c4[nH]c(=O)ccc34)cc2)c1` [Compound I-34, Ditrifluoroacetate] was > 30%.

Consider `Cc1ccc(C(=O)Nc2cccc(CC(C)NC[C@H](O)c3ccc(O)c4[nH]c(=O)ccc34)c2)cc1N(C)C(=O)CCN1CCC(OC(=O)Nc2ccccc2-c2ccccc2)CC1` (stereo partly drawn) [Compound I-37, Biphenyl-2-ylcarbamic acid 1-(2-{[5-(3-{2-[(R)-2-hydroxy-2-(8-hydroxy-2-oxo-1,2-dihydroquinolin-5-yl)-ethylamino]propyl}phenylcarbamoyl)-2-methylphenyl]-methylcarbamoyl}ethyl)piperidin-4-yl ester ditrifluoroacetic acid salt], for which the inhibition in vivo at 0.1 mg under setting [1] was < 30%. Same read-out and setting: the same measure for `C[C@H](Cc1cccc(NC(=O)c2cccc(N(C)C(=O)CCN3CCC(OC(=O)Nc4ccccc4-c4ccccc4)CC3)c2)c1)NC[C@H](O)c1ccc(O)c2[nH]c(=O)ccc12` [Compound I-38, Biphenyl-2-ylcarbamic acid 1-(2-{[3-(3-{(R)-2-[(R)-2-hydroxy-2-(8-hydroxy-2-oxo-1,2-dihydroquinolin-5-yl)-ethylamino]propyl}phenylcarbamoyl)phenyl]methyl-carbamoyl}ethyl)piperidin-4-yl ester ditrifluoroacetic acid salt]: < 30%.
